Data from article PMC3433420 (PLoS ONE, 2012).
Residues, ends and D or L forms follow the SMILES beside them.

Tests used:
SH2D1A SH2 domain = biological target: T1, SH2D1A SH2 domain (Homo sapiens, UniProt O60880); assay: FP saturation binding assay
T1 sequence (O60880 6-104 limits assumed): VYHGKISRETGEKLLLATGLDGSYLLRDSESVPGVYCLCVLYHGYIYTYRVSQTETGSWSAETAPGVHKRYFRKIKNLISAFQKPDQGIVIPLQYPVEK

[1] = biological target: T2, PLCG1-NC tandem SH2 domains (Homo sapiens, UniProt P19174); assay: FP saturation binding assay; conditions: Protein PLCG1-NC; FP saturation binding, high-confidence ErbB interactions; mean over replicate hits
T2 construct: the tandem protein was included in our analysis with all internal amino acids linking the domains; 6X His; thioredoxin; made in house; host or cells: E. coli BL21(DE3)pLysS
T2 sequence (P19174 550-756 limits assumed): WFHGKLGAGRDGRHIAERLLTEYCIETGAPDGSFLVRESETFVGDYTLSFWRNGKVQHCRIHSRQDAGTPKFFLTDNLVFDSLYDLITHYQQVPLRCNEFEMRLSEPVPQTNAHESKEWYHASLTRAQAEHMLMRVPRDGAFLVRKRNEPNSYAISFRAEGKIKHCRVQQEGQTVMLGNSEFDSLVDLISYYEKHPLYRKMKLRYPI

GRAP2 SH2 domain = biological target: T3, GRAP2 SH2 domain (Homo sapiens, UniProt O75791); assay: FP saturation binding assay
T3 sequence (O75791 58-149 limits assumed): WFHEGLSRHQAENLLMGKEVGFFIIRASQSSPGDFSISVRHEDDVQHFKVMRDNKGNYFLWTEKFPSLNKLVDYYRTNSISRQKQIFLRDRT

HSH2D SH2 domain = biological target: T4, HSH2D SH2 domain (Homo sapiens, UniProt Q96JZ2); assay: FP saturation binding assay
T4 sequence (Q96JZ2 34-125 limits assumed): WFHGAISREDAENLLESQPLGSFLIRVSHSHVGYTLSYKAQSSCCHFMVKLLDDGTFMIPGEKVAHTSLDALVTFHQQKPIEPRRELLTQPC

PTK6 SH2 domain = biological target: T5, PTK6 SH2 domain (Homo sapiens, UniProt Q13882); assay: FP saturation binding assay; conditions: protein PTK6; FP, high-confidence ErbB interactions; mean of replicate hits
T5 construct: from the PTK6 SH2 domain; 6X His; thioredoxin; made in house; host or cells: E. coli BL21(DE3)pLysS
T5 sequence (Q13882 78-170 limits assumed): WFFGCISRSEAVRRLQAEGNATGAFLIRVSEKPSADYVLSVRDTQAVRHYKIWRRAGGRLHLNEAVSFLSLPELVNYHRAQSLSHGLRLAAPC
How it was run: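 Rhodamine-labeled peptides (10 nM final) were titrated with 12 SH2 domain concentrations (0.002–10 µM) in 20 mM HEPES, 100 mM KCl, 0.1% Tween-20, 5 mM DTT, pH 7.8. After 20 min at room temperature in the dark, FP (ex 530/em 555 nm) was read. KDs came from nonlinear least-squares fits.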

SH2 and PTB domains [2] = biological target: T6, SH2 and PTB domains (Homo sapiens, UniProt P42684); assay: In-house protein microarrays (with or without 5 mM DTT), protein named per line; assay type: binding; conditions: protein ABL2, array fabrication # 39336
T6 construct: thioredoxin; made in house; host or cells: BL21(DE3)pLysS E. coli
T6 sequence (P42684 whole entry, the tested form may be a part): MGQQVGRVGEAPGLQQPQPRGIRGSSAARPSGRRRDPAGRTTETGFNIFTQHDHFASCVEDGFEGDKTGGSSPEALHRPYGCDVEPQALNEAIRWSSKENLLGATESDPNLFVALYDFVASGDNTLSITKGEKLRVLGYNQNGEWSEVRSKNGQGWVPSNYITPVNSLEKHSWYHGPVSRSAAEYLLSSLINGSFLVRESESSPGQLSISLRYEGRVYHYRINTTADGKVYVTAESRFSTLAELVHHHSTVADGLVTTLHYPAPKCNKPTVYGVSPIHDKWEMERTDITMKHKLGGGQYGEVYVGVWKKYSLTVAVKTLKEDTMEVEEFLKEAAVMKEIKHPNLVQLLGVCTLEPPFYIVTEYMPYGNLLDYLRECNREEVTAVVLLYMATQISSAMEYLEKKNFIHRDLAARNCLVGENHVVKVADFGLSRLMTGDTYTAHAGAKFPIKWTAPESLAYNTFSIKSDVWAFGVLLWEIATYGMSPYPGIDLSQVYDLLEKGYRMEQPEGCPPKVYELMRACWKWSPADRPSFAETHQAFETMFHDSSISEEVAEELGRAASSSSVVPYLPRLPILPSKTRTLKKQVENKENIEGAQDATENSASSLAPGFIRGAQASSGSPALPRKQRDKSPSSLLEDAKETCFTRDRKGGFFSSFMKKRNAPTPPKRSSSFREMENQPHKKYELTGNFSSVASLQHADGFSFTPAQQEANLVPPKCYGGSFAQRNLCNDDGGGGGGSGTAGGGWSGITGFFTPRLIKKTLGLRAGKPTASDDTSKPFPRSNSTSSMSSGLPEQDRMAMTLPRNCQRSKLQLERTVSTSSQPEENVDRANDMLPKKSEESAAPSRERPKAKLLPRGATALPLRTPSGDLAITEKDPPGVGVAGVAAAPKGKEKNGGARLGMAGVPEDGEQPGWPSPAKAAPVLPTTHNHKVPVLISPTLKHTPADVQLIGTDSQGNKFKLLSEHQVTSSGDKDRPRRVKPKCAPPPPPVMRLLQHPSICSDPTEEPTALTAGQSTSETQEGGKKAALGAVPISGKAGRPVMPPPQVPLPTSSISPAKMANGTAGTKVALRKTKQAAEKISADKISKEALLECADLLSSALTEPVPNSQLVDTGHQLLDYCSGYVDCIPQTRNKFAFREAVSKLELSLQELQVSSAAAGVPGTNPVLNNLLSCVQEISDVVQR
Procedure: (§1) 300 pL of purified recombinant proteins and a thioredoxin tag control were spotted at a concentration of ∼40 µM in duplicate onto aldehyde-coated microscope slides (Erie Scientific Company, Portsmouth, NH) using a Nano-Plotter (NP) 2.1/E noncontact microarrayer (GeSiM, Munich, Germany). 16 identical microarrays per slide were printed in a 2×8 (column by row) format with distances of 9 mm between individual arrays; each array consisted of a 14×14 configuration of spots 400 µm apart. Following printing at a constant humidity level of 50%, slides were desiccated overnight and stored at −80°C. For peptide probing, array slides were transferred to 96-well microplates (TeleChem International, Inc., Sunnyvale, CA) and sandwiched with silicone gaskets. Prior to peptide addition, aldehyde sites were quenched with buffer B (20 mM HEPES, 100 mM KCl, 0.1% Tween-20, 5 mM DTT, pH 7.8) containing 1% bovine serum albumin (BSA) (w/v) for one hour at room temperature; moderate agitation was applied in a plate shaker (IKA, Germany) to displace glycerol from the surface area of protein sample spots. […] The arrays were subsequently washed once with 300 µL of buffer B and once with 300 µL of ddH2O. Residual water was removed by centrifugation; slides were stored under desiccation in the dark until analysis.
(§2) Microarray slides were scanned at a resolution of 10 µm using a GenePix 4000B microarray scanner and analyzed using GenePix Pro v6.0 software (Molecular Devices, Sunnyvale, CA). To independently visualize protein spots irrespective of peptide binding, samples were printed simultaneously with 400 nM of Cyanine-5 (Cy5) labeled bovine serum albumin (BSA). […] Following spot layout identification via Cy5 labeled BSA, the mean fluorescence intensity of rhodamine for duplicate protein spots was quantified and normalized by subtracting the corresponding mean fluorescence intensity of thioredoxin. Normalized fluorescence values were then imported into MATLAB and KDs determined as previously described.

SH2 and PTB domains [3] = biological target: T7, SH2 and PTB domains (Homo sapiens, UniProt P43405); assay: as above; assay type: binding; conditions: protein SYK-NC, array fabrication # 39336
T7 construct: thioredoxin; made in house; host or cells: BL21(DE3)pLysS E. coli
Procedure: as §1, §2

SH2 and PTB domains [4] = biological target: T8, SH2 and PTB domains (Homo sapiens, UniProt P07947); assay: as above; assay type: binding; conditions: protein YES1, array fabrication # 39336
T8 construct: thioredoxin; made in house; host or cells: BL21(DE3)pLysS E. coli
T8 sequence (P07947 whole entry, the tested form may be a part): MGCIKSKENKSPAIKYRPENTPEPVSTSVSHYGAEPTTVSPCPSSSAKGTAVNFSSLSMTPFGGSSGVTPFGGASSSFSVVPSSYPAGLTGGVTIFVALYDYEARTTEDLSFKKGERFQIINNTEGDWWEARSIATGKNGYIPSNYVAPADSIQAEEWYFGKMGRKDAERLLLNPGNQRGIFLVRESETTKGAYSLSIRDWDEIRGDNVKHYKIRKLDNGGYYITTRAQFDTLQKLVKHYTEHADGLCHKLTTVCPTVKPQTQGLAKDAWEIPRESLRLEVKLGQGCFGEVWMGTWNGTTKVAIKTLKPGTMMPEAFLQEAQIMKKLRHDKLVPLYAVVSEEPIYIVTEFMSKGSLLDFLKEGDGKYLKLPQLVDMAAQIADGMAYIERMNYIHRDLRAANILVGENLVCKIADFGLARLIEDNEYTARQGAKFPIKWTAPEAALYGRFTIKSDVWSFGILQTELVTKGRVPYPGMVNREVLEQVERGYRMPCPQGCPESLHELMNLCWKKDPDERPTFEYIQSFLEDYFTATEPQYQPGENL
Procedure: as §1, §2

SH2 and PTB domains [5] = biological target: T9, SH2 and PTB domains (Homo sapiens, UniProt P78314); assay: as above; assay type: binding; conditions: protein SH3BP2, array fabrication # 39336
T9 construct: thioredoxin; made in house; host or cells: BL21(DE3)pLysS E. coli
T9 sequence (P78314 1-561): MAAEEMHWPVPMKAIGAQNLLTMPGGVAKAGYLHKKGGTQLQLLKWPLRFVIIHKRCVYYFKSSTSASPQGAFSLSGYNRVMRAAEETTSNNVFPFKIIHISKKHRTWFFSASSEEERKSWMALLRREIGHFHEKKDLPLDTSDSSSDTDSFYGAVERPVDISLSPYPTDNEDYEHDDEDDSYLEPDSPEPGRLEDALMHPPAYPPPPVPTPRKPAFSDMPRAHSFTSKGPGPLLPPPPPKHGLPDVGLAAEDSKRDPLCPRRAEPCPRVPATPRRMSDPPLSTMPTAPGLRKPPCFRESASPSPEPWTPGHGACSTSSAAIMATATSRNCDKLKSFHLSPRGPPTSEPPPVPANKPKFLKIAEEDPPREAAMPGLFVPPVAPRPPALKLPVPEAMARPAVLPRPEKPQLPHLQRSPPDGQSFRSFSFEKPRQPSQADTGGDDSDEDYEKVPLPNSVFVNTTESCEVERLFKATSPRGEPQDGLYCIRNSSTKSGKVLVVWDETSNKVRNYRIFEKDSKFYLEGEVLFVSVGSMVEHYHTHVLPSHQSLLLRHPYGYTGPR
Procedure: as §1, §2

SH2 and PTB domains [6] = biological target: T10, SH2 and PTB domains (Homo sapiens, UniProt P51451); assay: as above; assay type: binding; conditions: protein BLK, array fabrication # 39336
T10 construct: thioredoxin; made in house; host or cells: BL21(DE3)pLysS E. coli
T10 sequence (P51451 whole entry, the tested form may be a part): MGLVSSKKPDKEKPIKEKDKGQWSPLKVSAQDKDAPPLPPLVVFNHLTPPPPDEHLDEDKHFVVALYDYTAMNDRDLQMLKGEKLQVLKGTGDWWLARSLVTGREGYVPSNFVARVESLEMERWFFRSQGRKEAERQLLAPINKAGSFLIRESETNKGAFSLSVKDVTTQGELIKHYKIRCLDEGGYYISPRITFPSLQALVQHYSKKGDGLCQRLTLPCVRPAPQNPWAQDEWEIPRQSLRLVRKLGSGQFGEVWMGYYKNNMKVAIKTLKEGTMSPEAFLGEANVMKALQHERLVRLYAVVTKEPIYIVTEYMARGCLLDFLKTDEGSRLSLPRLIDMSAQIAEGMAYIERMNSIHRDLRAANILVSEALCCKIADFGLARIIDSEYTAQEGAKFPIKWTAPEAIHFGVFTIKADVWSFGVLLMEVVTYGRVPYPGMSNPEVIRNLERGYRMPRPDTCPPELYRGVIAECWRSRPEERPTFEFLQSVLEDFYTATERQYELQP
Procedure: as §1, §2

SH2 and PTB domains [7] = biological target: T11, SH2 and PTB domains (Homo sapiens, UniProt P16885); assay: as above; assay type: binding; conditions: protein PLCG2-NC, array fabrication # 39336
T11 construct: thioredoxin; made in house; host or cells: BL21(DE3)pLysS E. coli
T11 sequence (P16885 1-1265): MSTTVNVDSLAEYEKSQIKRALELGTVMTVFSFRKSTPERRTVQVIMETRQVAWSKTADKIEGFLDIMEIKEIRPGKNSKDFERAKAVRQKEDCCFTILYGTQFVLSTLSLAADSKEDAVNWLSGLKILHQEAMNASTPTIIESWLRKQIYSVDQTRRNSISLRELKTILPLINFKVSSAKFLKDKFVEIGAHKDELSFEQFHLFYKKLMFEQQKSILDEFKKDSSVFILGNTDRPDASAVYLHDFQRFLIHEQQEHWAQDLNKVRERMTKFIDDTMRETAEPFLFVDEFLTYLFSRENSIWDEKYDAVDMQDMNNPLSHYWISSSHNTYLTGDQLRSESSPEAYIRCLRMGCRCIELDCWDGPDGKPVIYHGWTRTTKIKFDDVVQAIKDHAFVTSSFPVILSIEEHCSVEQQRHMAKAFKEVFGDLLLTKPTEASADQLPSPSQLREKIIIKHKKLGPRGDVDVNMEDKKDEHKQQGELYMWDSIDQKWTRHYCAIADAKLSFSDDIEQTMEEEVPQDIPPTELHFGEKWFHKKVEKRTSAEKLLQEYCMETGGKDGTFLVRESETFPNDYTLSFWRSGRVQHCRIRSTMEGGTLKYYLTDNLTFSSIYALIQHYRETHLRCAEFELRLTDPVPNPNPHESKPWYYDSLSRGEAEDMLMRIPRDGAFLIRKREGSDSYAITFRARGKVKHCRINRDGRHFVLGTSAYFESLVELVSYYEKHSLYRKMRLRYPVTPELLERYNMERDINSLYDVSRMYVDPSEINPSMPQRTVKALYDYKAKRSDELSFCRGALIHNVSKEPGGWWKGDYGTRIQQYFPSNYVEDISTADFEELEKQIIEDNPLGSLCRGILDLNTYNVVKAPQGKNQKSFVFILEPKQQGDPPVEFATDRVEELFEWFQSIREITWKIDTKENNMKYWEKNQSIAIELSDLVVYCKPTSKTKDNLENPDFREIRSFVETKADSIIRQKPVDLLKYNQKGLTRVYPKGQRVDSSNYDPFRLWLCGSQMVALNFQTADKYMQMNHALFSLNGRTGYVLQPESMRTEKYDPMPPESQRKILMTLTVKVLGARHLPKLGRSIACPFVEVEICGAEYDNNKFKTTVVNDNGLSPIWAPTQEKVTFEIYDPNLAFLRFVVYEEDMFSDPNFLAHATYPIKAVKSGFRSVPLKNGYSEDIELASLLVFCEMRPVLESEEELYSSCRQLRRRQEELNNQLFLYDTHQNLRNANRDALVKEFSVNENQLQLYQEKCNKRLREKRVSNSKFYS
Procedure: as §1, §2

SMILES	Kd (SH2D1A SH2 domain) [µM]	Kd [1] [µM]	Kd (GRAP2 SH2 domain) [µM]	Kd (HSH2D SH2 domain) [µM]	Kd (PTK6 SH2 domain) [µM]	Kd (SH2 and PTB domains [2]; PM assay replicate # 39341) [µM]	Kd (SH2 and PTB domains [2]; PM assay replicate # 39342) [µM]	Kd (SH2 and PTB domains [3]; PM assay replicate # 39341) [µM]	Kd (SH2 and PTB domains [3]; PM assay replicate # 39342) [µM]	Kd (SH2 and PTB domains [4]; PM assay replicate # 39341) [µM]	Kd (SH2 and PTB domains [4]; PM assay replicate # 39342) [µM]	Kd (SH2 and PTB domains [5]; PM assay replicate # 39341) [µM]	Kd (SH2 and PTB domains [5]; PM assay replicate # 39342) [µM]	Kd (SH2 and PTB domains [6]; PM assay replicate # 39341) [µM]	Kd (SH2 and PTB domains [6]; PM assay replicate # 39342) [µM]	Kd (SH2 and PTB domains [7]; PM assay replicate # 39341) [µM]	Kd (SH2 and PTB domains [7]; PM assay replicate # 39342) [µM]
CC(C)C[C@H](NC(=O)[C@H](Cc1ccc(OP(=O)(O)O)cc1)NC(=O)[C@H](CCC(=O)O)NC(=O)[C@@H]1CCCN1C(=O)[C@H](CC(N)=O)NC(=O)CN)C(=O)N[C@@H](CC(N)=O)C(=O)N[C@H](C(=O)N[C@H](C(=O)N[C@@H](CCC(N)=O)C(=O)N1CCC[C@H]1C(=O)N[C@H](C(=O)N[C@@H](CC(=O)O)C(=O)O)[C@@H](C)O)C(C)C)[C@@H](C)O [ErbB1 1138 13-mer] (HELM PEPTIDE1{G.N.P.E.[O=C([C@H](Cc1ccc(OP(=O)(O)O)cc1)N[*:1])[*:2]].L.N.T.V.Q.P.T.D}$$$$V2.0)	9.44	5.35	4.82	3.41	–	–	–	–	–	–	–	–	–	–	–	–	–
C[C@H](NC(=O)[C@H](CC(N)=O)NC(=O)[C@H](Cc1c[nH]cn1)NC(=O)[C@H](Cc1ccc(OP(=O)(O)O)cc1)NC(=O)[C@H](CCC(=O)O)NC(=O)[C@@H]1CCCN1C(=O)[C@H](CC(N)=O)NC(=O)[C@@H](N)CC(=O)O)C(=O)N[C@@H](CO)C(=O)N[C@@H](CC(N)=O)C(=O)NCC(=O)N1CCC[C@H]1C(=O)N[C@@H](CC(=O)O)C(=O)O [ErbB4 1188 13-mer] (HELM PEPTIDE1{D.N.P.E.[O=C([C@H](Cc1ccc(OP(=O)(O)O)cc1)N[*:1])[*:2]].H.N.A.S.N.G.P.D}$$$$V2.0)	–	–	–	3.05	9.42	–	–	–	–	–	–	–	–	–	–	–	–
CC(C)C[C@H](NC(=O)[C@@H](NC(=O)[C@@H](NC(=O)CNC(=O)[C@@H]1CCCN1)[C@@H](C)O)C(C)C)C(=O)N1CCC[C@H]1C(=O)N1CCC[C@H]1C(=O)N1CCC[C@H]1C(=O)N1CCC[C@H]1C(=O)N[C@@H](Cc1ccc(OP(=O)(O)O)cc1)C(=O)N[C@@H](CCCNC(=N)N)C(=O)N[C@@H](Cc1c[nH]cn1)C(=O)N[C@@H](CCCNC(=N)N)C(=O)N[C@@H](CC(N)=O)C(=O)N[C@H](C(=O)N[C@H](C(=O)N[C@H](C(=O)N[C@@H](CC(=O)O)C(=O)O)C(C)C)C(C)C)[C@@H](C)O [ErbB4 pY1301 (18-mer)] (HELM PEPTIDE1{P.G.T.V.L.P.P.P.P.[O=C([C@H](Cc1ccc(OP(=O)(O)O)cc1)N[*:1])[*:2]].R.H.R.N.T.V.V.D}$$$$V2.0)	–	–	–	–	–	1.03	0.00068	0.80	1.17	1.37	4.86	1.18	1.61	1.18	1.60	0.81	8.37
